Patent US12577247B2 (BUGWORKS RESEARCH, INC., priority 2021, dated 2026)
Where two headings read alike, the source gives them in different places.

Key:
[1] = Pharmacokinetic study in dogs; assay type: in vivo, male Beagle dogs; settings: for half-life / Vd / clearance / bioavailability / Cmax / Tmax: male, Beagle, plasma; for half-life: dog; for Vd: read-out: Vss; for Cmax / Tmax: po, p.o; for Cmax: read-out: Cmax (head Co*/); for Tmax: read-out: Tmax (head Tma)
Procedure: Intravenous (i.v) and Oral formulations for pharmacokinetic (PK) studies was formulated in different vehicles and excipients to achieve the desirable solubility for intravenous and Oral routes of administration.
Appropriate amount of the test compound was weighed and dissolved in required volume of the vehicles, followed by vertexing for a few seconds to dissolve the compound. Then the solution (or) suspension was sonicated at room temperature for 5 minutes to obtain a visually clear solution and or homogenous suspension. All the formulations were prepared freshly at room temperature before dosing.
The dog PK study was carried out in male Beagle dogs of minimum 10 Kg body weight to estimate the plasma clearance, volume of distribution and terminal half-life, area under curve (AUC) and peak plasma concentration (Cmax), time of peak plasma concentration (Tmax) and absolute bioavailability (% F) following intravenous and oral routes of administration.
Briefly, Example 13 and Example 39 was administered to a group of 3 non-naïve male dogs. The first set of 3 animals received an intravenous administration and following a washout period of 7 days, received an oral administration of Example 13. Following a further 7-day washout the animals will then repeat the intravenous and oral dosing regimen with an administration of Example 39. Blood samples (1 mL) was collected from the jugular vein by venepuncture into tubes containing K2EDTA anticoagulant at the following sampling times: • IV: Predose, 0.083 (5 min), 0.25, 0.5, 1, 2, 4, 8 and 24 hrs post-dose. • PO: Predose, 0.25, 0.5, 1, 2, 4, 8 and 24 hrs post-dose.
Immediately following collection blood samples was inverted to ensure mixing with anticoagulant and placed on wet ice. As soon as practically possible samples were centrifuged (3000 rpm, 10 min, at 4° C.) and the resultant plasma decanted into appropriately labelled polypropylene tubes in 96-well plate format and stored in a freezer set to maintain a temperature of ≤−65° C., until analysis.
Plasma samples were analysed for a fit-for purpose LC-MS/MS method with a lower limit of quantification. The pharmacokinetic parameters were calculated using the non-compartmental analysis tool of validated Phoenix® WinNonlin® software (Certara, USA version 8.4) with linear up and log down method for estimating AUC.
All animals in intravenous (IV bolus) group were under fed state and animals in oral groups were fasted overnight (min 12 hr) before dose administration and food was provided 4 h post dose administration. All animals were received water ad libitum during the study period. The mean (±SD) pharmacokinetic parameters of Example 13, Example 122b & Example 39 following IV bolus and Oral dose administration in Mice/Rat and Dog is provided in Table-9.

Granzyme B = test: Biomarker (Granzyme-B) FACS analysis in tumour samples from the efficacy study; assay type: in vivo, Balb/c mice; settings: 30 mg/kg TID, Day 22, vs vehicle and anti-PD1 antibody groups
Procedure: On Day 22, the animals from the efficacy study above were euthanized by overdose of gaseous anaesthesia and tumor samples were collected and their weights were recorded before evaluating for Granzyme-B by FACs analysis.
Approximately 100 mg of tissue samples were homogenized, and the single cell suspensions were fixed and permeabilized using Miltenyi Biotec and BD kit-based reagents before staining with anti-Granzyme-B antibodies. Cells were subjected to FACS analysis while using isotype controls to ensure the specific binding of antibody and unstained cells as a negative control. The result obtained were analyzed using Flow Jo software and represented in FIG. 2.

[2] = Pharmacokinetic study in mice; assay type: in vivo, CD1 mice
[3] = test system: CT-26 syngeneic colon cancer; test: In vivo efficacy on CT-26 syngeneic colon cancer mice model; set-up: species or system Balb/c mice; settings: PO, TID; for Decrease in tumor volume: by day 22
Procedure: CT-26 syngeneic model of colon cancer in BALB/c is an established model and has been reported widely in literature for screening of compounds in efficacy studies for immune-oncology therapeutics.
CT-26 Cell line expansion and sub-culturing: CT26 (CT26·WT, ATCC® CRL-2638) is an N-nitroso-N-methylurethane-(NNMU) induced, undifferentiated colon carcinoma cell line derived from Mus musculus, mouse colon tissue. Cells were cultured using standard techniques in RPMI 1640 with 10% FBS and 1× penicillin—streptomycin solution at 37° C. with 5% CO2 in a suitable incubator. Cell density was determined using a hemocytometer upon harvest and the cells were prepared in 100 μL of cold PBS in a microfuge tube and kept on ice until use for inoculations.
Mice: All animal studies were conducted in accordance with an Institutional Animal Care and Use Committee. 6- to 8-week-old Balb/c mice were typically housed in sterilized suspended standard, polysulfone cages, with stainless steel top grills having facilities for holding pelleted food and drinking water in polycarbonate bottles with stainless steel sipper tubes and environment enrichment objects in the vivarium for two weeks prior to tumor cell injection. The same conditions were maintained throughout the subsequent tumor engraftment and treatment evaluation.
Tumor engraftment: All animals were inoculated with 5×10^5/mouse in 100 μL subcutaneously in the lower right flank. Tumor growth was monitored twice a week from Day 4 onwards using a calibrated digital vernier caliper and the tumor volume calculated using the formula, tumor volume (mm3)=length×(width) 2/2. Once tumor volume reaches 100±50 mm^3 on Day 12, all animals were randomized into respective treatment groups as per study plan. See Table 1 for details regarding the setup and dosing of animals. Tumor volume at the time of randomization was 90 mm^3 There was no statistical significance in tumor volume at the time of treatment initiation. Post randomization, animals were treated with the test substance for 21 days. The average tumor volume/size in the treatment group allowed to reach up to 2500 mm^3, beyond this tumor size the animals to be sacrificed humanely as per general guidelines.
Formulation and administration: Formulations were prepared with the components listed in Table 11 every day and mixed well before dosing each time and administered orally. The anti PD-1 antibody was administered via the intraperitoneal route.
Data is represented as Mean±SEM n=4-10, *p<0.05 Vs Vehicle, One-Way ANOVA followed by Dunnett's multiple comparison test. […] Significant decrease in tumor volume was observed on Day 18 and Day 22 compared to vehicle treatment.

[4] = iv, 3 mg/kg, Dog, IV bolus, Table 6, read-out: T1/2 (IV bolus) (converted)
[5] = iv, 3 mg/kg, Dog, i.v, 3 mg/kg, read-out: t1/2 (converted)
[6] = oral, 10 mg/kg, Dog, Table 6, read-out: % F
[7] = 30 mg/kg, line stands under Dog
[8] = Dog, oral 10 mg/kg vs IV bolus 3 mg/kg, read-out: % F (bioavailability)

Total systemic clearance relative to hepatic clearance ([1]; Dog)	Volume of distribution relative to total body water (TBW) ([1]; Dog) [× TBW]	Total CLsystemic in plasma ([1]; Dog, Table 6) [mL/min/kg]	Co (head Co*/) ([1]; Dog, i.v, 3 mg/kg) [ng/m]	half-life [1, 4] [min]	half-life [1, 5] [min]	Vd ([1]; intravenous, Dog, Table 6) [L/kg]	clearance ([1]; iv, Dog, i.v, 3 mg/kg) [mL/min/kg]	Vd ([1]; iv, Dog, i.v, 3 mg/kg) [L/kg]	bioavailability [1, 6] [%]	Cmax ([1]; Dog, 10 mg/kg) [ng/mL]	Tmax ([1]; Dog, 10 mg/kg) [min]	bioavailability [1, 8] [%]	Structure (SMILES)	other results
1.7 ×	3.3	52	1352	27	24	2	52 ± 8.7	2	25	618	30	25	CCc1c(C)nn2c(N)c(C#N)c(NCCc3ccn(C4(CO)CC4)n3)nc12 [Example 39, 7-amino-3-ethyl-5-((2-(1-(1-(hydroxymethyl)cyclopropyl)-1H-pyrazol-3-yl)ethyl)amino)-2-methylpyrazolo[1,5-a] pyrimidine-6-carbonitrile]	Cmax [1, 7]: 201 ng/mL; Tmax [1, 7]: 30 min
equivalent to that of hepatic clearance	3	33	2899	46.2	42	1.8	33 ± 3.6	1.75	25	839	30	25	Cc1cccc(CCNc2nc3c(C)c(C)nn3c(N)c2C#N)n1 [Example 13, 7-amino-5-((2-(6-methylpyridin-2-yl)ethyl)amino)-2,3-dimethylpyrazolo[1,5-a]pyrimidine-6-carbonitrile]	Tumor Granzyme B expression (Granzyme B): significant increase; Exposure after subcutaneous (SC) dose relative to oral route [2]: 32 ×; Cmax ([2]; CD1, mouse, plasma, sc, 10 mg/kg, s.c, 10 mg/kg, read-out: Cmax (head Co*/)): 1350 ng/mL; Tmax ([2]; CD1, mouse, plasma, sc, 10 mg/kg, s.c, 10 mg/kg, read-out: Tmax (head Tma)): 30 min; Change in tumor volume ([3]; 1 mg/kg, vs vehicle): did not show significant change in tumor volume; Decrease in tumor volume ([3]; 3 mg/kg): 35%; Decrease in tumor volume ([3]; 10 mg/kg): 35%; Decrease in tumor volume ([3]; 30 mg/kg): 48%
